What was measured:
[1] = CN-105 pharmacokinetics in brain and plasma (LC/MS); assay type: in vivo; details: mice
Text: One rationale for creating the smaller apoE mimetic peptides was to enhance CNS penetration and possibility of noninvasive mechanisms of delivery (for example, intranasal). To define pharmacokinetic parameters, we performed initial non-GLP studies in mice using stable radioisotope labeled CN-105 peptide (MW of heavy CN-105 was 362.7 vs. 357.7). […] The total CNS exposure was 44%; of note, this is approximately 5 fold higher than prior apoE based mimetic peptides.
Experiment 1. CN-105 pharmacokinetics in Brain and Plasma. The concentration of CN-105 was determined at 1, 3, 10, 15, 30 and 60 minutes (n = 5/time point) post injection using LC/MS.
A protocol was developed in collaboration with the Duke University Core Proteomics and Metabolomics Shared Resource using LC/MS on a high-resolution accurate-mass instrument. […] After extraction, samples were dried down in Speed Vac and reconstituted in 25 uL of 1% ACN/0.1% TFA/0.02% HFBA and analyzed using a nanoAcquity LC (Waters) coupled to a Synapt G2 Q-ToF (Waters). Quantitative data was extracted as selected ion chromatograms for both the native ((M + 2H)^2+at m/z 357.7 and heavy-labeled form CN-105 at m/z 362.7). Quantitation was accomplished by using a ratio of the peak area of the analyte and internal standard which was fit to a 7-point calibration curve (plasma R^2 = 0.997 and brain R^2 = 0.999).

[2] = tested on: murine model of collagenase-induced ICH; assay: Hemorrhage volume by SWI MRI after collagenase-induced ICH; assay type: in vivo, C57BL/6J mice; details: mean ± standard error, n = 3–4/group
Description: (§1) Experiment 2. Hematoma volume. Hemorrhage volume was assessed by magnetic resonance imaging (MRI) at 2 hours post ICH (before treatment) and 24 hours post ICH. 3 saline- and 3 CN-105-treated animals were perfused at 24 hours post ICH, and brain hematoxylin and eosin (H&E) staining was performed. CN-105 or saline was given by tail vein injection at 2, 6, and 24 hours post-ICH.
(§2) Intrastriatal collagenase injection was used to induce ICH in mice, as previously described. Briefly, the trachea was intubated after anesthesia induction with 4.6% isoflurane, and the lungs were mechanically ventilated with 1.5% isoflurane in a mixture of 30%/70% O2/N2. Rectal temperature was maintained at 37 °C ± 0.2 °C by circulating warm water in an underbody waterbed. The animal’s head was secured in a stereotactic frame, and a midline scalp incision was made. After exposing the skull, a burr hole was created 2.2 mm left lateral to bregma, and a 0.5 μL syringe needle (Hamilton, Reno, NV, USA) was advanced to a depth of 3 mm from cortex. Type IV-S Clostridial collagenase (Sigma, St. Louis, MO, USA) was injected over 2 minutes (0.075 U in 0.4 μL normal saline). After closing the incision, animals were allowed to recover spontaneous ventilation, and were then extubated and given free access to food and water. […]

[3] = tested on: murine model of collagenase-induced ICH; assay: Histological hemorrhage volume (H&E staining) after ICH; assay type: in vivo, C57BL/6J mice; details: 0.05 mg/kg i.v. tail vein at 2, 6 and 24 hours post-ICH; saline 7.97 ± 0.97, p = 0.66; mean ± standard error, n = 3/group
Description: as §1
Intrastriatal collagenase injection was used to induce ICH in mice, as previously described. Briefly, the trachea was intubated after anesthesia induction with 4.6% isoflurane, and the lungs were mechanically ventilated with 1.5% isoflurane in a mixture of 30%/70% O2/N2. Rectal temperature was maintained at 37 °C ± 0.2 °C by circulating warm water in an underbody waterbed. The animal’s head was secured in a stereotactic frame, and a midline scalp incision was made. […]
Histological hematoma volume was measured at 24 hours after injury to coincide with maximum hematoma expansion. […] Lesion volume was measured by digitally sampling stained sections with an image analyzer (M2 Turnkey System, Imaging Research, Inc., St. Catharines, Ontario, Canada). Lesion volumes (mm^3) were computed as running sums of lesion area multiplied by the known interval between sections (400 μm) over the extent of the lesion, and expressed as an orthogonal projection.

[4] = tested on: murine model of collagenase-induced ICH; assay: Brain water content (cerebral edema) after ICH; assay type: in vivo, C57BL/6J mice; details: 24 hours after injury, 0.05 mg/kg i.v. at 2, 6 and 24 hours post ICH, mean ± standard error, n = 6–8/group
Description: Experiment 3. Brain water content. Brain water content was assessed at 24 hours post ICH in 8 saline- and 8 CN-105-treated animals. CN-105 or saline was given by tail vein injection at 2, 6, and 24 hours post ICH. Two animals randomized to CN-105 died at 4 and 6 hours post-ICH, and were excluded from further analyses.
as §2, with “saline).” for “saline). After closing the incision, animals were allowed to recover spontaneous ventilation, and were then extubated and given free access to food and water.”
Mice were anesthetized and euthanized at 24 hours after ICH to coincide with the point of maximum inflammatory changes. […] Cerebral edema was expressed as water content, calculated as a percentage of wet weight ([wet weight - dry weight]/[wet weight] x 100).

[5] = tested on: murine model of collagenase-induced ICH; assay: Neuroseverity score after ICH; assay type: in vivo, C57BL/6J mice; details: 0.05 mg/kg i.v. at 4, 8 and 24 hours post ICH; p = 0.12; n = 14/group
Description: (§3) Experiment 4. Neurobehavioral assessment. Animals were randomized to vehicle (n = 14) or CN-105 (n = 14) groups, and evaluated for neurobehavioral function (neuroscore), vestibulomotor function (rotarod), and spatial learning (MWM). Mice received tail vein injections of vehicle or CN105 at 4, 8, and 24 hours post ICH.
(§4) Intrastriatal collagenase injection was used to induce ICH in mice, as previously described. Briefly, the trachea was intubated after anesthesia induction with 4.6% isoflurane, and the lungs were mechanically ventilated with 1.5% isoflurane in a mixture of 30%/70% O2/N2. Rectal temperature was maintained at 37 °C ± 0.2 °C by circulating warm water in an underbody waterbed. The animal’s head was secured in a stereotactic frame, and a midline scalp incision was made. After exposing the skull, a burr hole was created 2.2 mm left lateral to bregma, and a 0.5 μL syringe needle (Hamilton, Reno, NV, USA) was advanced to a depth of 3 mm from cortex. Type IV-S Clostridial collagenase (Sigma, St. Louis, MO, USA) was injected over 2 minutes (0.075 U in 0.4 μL normal saline). After closing the incision, animals were allowed to recover spontaneous ventilation, and were then extubated and given free access to food and water.
CN-105 (Ac-VSRRR-amide) was synthesized by Polypeptide Inc. (San Diego, CA) to a purity of >99%, and was dissolved in normal saline. […]

[6] = tested on: murine model of collagenase-induced ICH; assay: Rotarod testing (vestibulomotor function) after ICH; assay type: in vivo, C57BL/6J mice; details: Days 1–5 after ICH; 0.05 mg/kg i.v. at 4, 8 and 24 hours post ICH; p = 0.0435; n = 14/group
Description: as §3
as §2, with “saline).” for “saline). After closing the incision, animals were allowed to recover spontaneous ventilation, and were then extubated and given free access to food and water.”
An automated rotarod (Ugo Basile, Comerio, Italy) was used to assess the effects of therapeutic intervention on vestibulomotor function. […] The average time lapse to fall from the rotating cylinder in the second set of trials was recorded as baseline latency. […] Average latency to fall from the rod was recorded.

[7] = tested on: murine model of collagenase-induced ICH; assay: Morris water maze testing after ICH; assay type: in vivo, C57BL/6J mice; details: Days 29–32 after ICH, 0.05 mg/kg i.v. at 4, 8 and 24 hours post ICH, n = 14/group
Description: as §3
as §2, with “saline).” for “saline). After closing the incision, animals were allowed to recover spontaneous ventilation, and were then extubated and given free access to food and water.”
The MWM[20] was used to assess the effects of therapeutic intervention on spatial learning and memory. […] Latency to find the platform was recorded by a computerized video tracking system (KeilSoft LLC, Chapel Hill, NC).

[8] = tested on: murine model of collagenase-induced ICH; assay: F4/80 microglial staining and stereology after ICH; assay type: in vivo, C57BL/6J mice; details: 5 days after ICH; 0.05 mg/kg i.v. at 4, 8 and 24 hours post ICH; vehicle 14593 ± 116, p = 0.003; mean ± standard error, n = 3–4
Description: Experiment 5. Microglial staining. A separate cohort of animals was randomized to vehicle (n = 4) or CN-105 (n = 4) groups and received tail vein injections at 4, 8, and 24 hours post ICH. Immunohistochemical microglial staining was performed and gliosis was quantified by stereology. One mice in vehicle group died within 1 day after injury and was excluded.
as §2, with “saline).” for “saline). After closing the incision, animals were allowed to recover spontaneous ventilation, and were then extubated and given free access to food and water.”
(§5) After anesthetic induction, mice underwent transcardial perfusion with 30 mL normal saline. […] Cells were counted using a Nikon 218912 light microscope interfaced with the StereoInvestigator software package (MicroBrightField, Williston, VT, USA). […]

[9] = tested on: murine model of collagenase-induced ICH; assay: NeuN neuronal survival, stereology after ICH; assay type: in vivo, C57BL/6J mice; details: ipsilateral, 33 days post ICH, 0.05 mg/kg i.v. at 4, 8 and 24 hours, n = 7/group
Text: Experiment 6. Neuronal survival. The hippocampus has been associated with spatial learning and memory. To determine whether histological outcome correlates with functional outcomes, neuronal density was quantified in the hippocampus and striatum of the mice (n = 7/group) in experiment 4 by stereology at 33 days post-ICH following MWM testing.
as §4
CN-105 (Ac-VSRRR-amide) was synthesized by Polypeptide Inc. (San Diego, CA) to a purity of >99%, and was dissolved in normal saline. Using a murine model of traumatic brain injury, 0.05 mg/kg CN-105 was previously found to be the lowest dose that improved functional performance after injury (data not shown). Here, therefore, 100 μL 0.05 mg/kg CN-105 in saline, or vehicle, was administered via intravenous tail vein injection 3 times at pre-specified timepoints after ICH. Animals were gently restrained by a rodent restrainer (Harvard Apparatus, Holliston, MA) during each administration.
as §5

AUC0–60 in brain ([1]; brain homogenate (urea in buffer), 0-60 minutes post injection, n = 5/time point, LC/MS): 548 fmol·min/µL
total CNS exposure ([1]; brain versus plasma AUC0–60): 44%
AUC0–60 in plasma ([1]; plasma, 0-60 minutes post injection, n = 5/time point, LC/MS): 1253 fmol·min/µL
half-life ([1]; mouse, non-GLP study, stable isotope labeled CN-105, plasma sampled 1-60 minutes post injection, n = 5/time point, LC/MS, read-out: terminal plasma half-life): 27 min
Substance: Ac-VSRRR-NH2 [CN-105, Ac-VSRRR-amide]
hemorrhage volume by SWI MRI at 24 hours post ICH ([2]; 0.05 mg/kg i.v. tail vein at 2, 6 and 24 hours post-ICH, saline 10.77 ± 1.70, p = 0.82): 10.14 ± 1.92 mm^3
hematoma volume by MRI at 2 hours after ICH ([2]; 2 hours after ICH induction, prior to treatment (baseline of the CN-105 group)): 9.93 ± 1.88 mm^3
hemorrhage volume by H&E staining at 24 hours after ICH [3]: 8.43 ± 0.15 mm^3
brain water content, contralateral hemisphere ([4]; p = 0.64): 78.70 ± 0.41%
brain water content, injured hemisphere ([4]; vehicle 80.67 ± 0.26, p = 0.029): 79.57 ± 0.38%
neuroseverity scores, Day 1 to Day 5 after ICH versus vehicle [5]: mild but not significant improvement
rotarod motor functional recovery versus vehicle [6]: significantly improved motor functional recovery
Morris water maze escape latencies versus vehicle ([7]; Day x Group p = 0.02): significantly lower latencies
Morris water maze learning curves (learning slopes) versus vehicle ([7]; p = 0.01): significantly steeper learning curves
number of F4/80-positive cells in the ipsilateral hippocampi [8]: 9327 ± 838 cells/mm^3
NeuN-positive cell numbers, striatum ([9]; vehicle 25142 ± 5777, p = 0.27): 21816 ± 5073 cells/mm^3
NeuN-positive cell numbers, dentate gyrus polymorphic region ([9]; vehicle 34919 ± 9378, p = 0.16): 42109 ± 8439 cells/mm^3
NeuN-positive cell numbers, CA3 region ([9]; vehicle 188719 ± 4780, p = 0.009): 225773 ± 10841 cells/mm^3

— paper PMC5054364, “Neuroprotective pentapeptide CN-105 improves functional and histological outcomes in a murine model of intracerebral hemorrhage” (Scientific Reports, 2016)
